From patent US11021444B2, “Antiviral compounds” (priority 2013, dated 2021)
Like-named read-outs stand apart in the source and are kept apart here.

Key:
recombinant RSV complex = recombinant RSV complex (Human respiratory syncytial virus A, UniProt P28887); experiment: RSV Polymerase Inhibition Assay; format: biochemical
How it was run: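 Inhibition measured as reduced incorporation of radiolabel into RNA products, detected by scintillation counting. Reactions: recombinant RSV complex (10 nM), RNA oligonucleotides, Tris-HCl pH 7.5, 6 mM MgCl2, inhibitor titration, 2 h at 30 °C, EDTA stop.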

[1] = tested on: Respiratory Syncytial Virus (RSV) long strain; experiment: microbe, parasite or virus in culture; format: cell-based; conditions: human respiratory syncytial virus, Tables A and B list compounds by EC50 band
How it was run: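 CPE-reduction format: viability measured colorimetrically with CCK-8 (450 nm, 630 nm reference) after 3-4 h, following 5-day infection at 37 °C, 5% CO2. Cells were HEp-2; inoculum 100 TCID50/well; duplicate 9-point 1/3 series starting at 100 μM or 1 μM.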

RSV replicon = experiment: microbe, parasite or virus in culture; format: cell-based; conditions: human respiratory syncytial virus, read-out: EC50, the concentration of the drug required for reducing RSV replicon RNA by 50%
[2] = Cytotoxicity Determination (CCK-8, without addition of virus); format: cell-based; conditions: human, 50% cytotoxicity concentration (CC50)
How it was run: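 Cytotoxicity was measured by CCK-8 after 3-4 hours at 37 °C, following 5 days of uninfected exposure at 37 °C and 5% CO2. Compounds ran as duplicate 7-point 1/2 dilutions starting at 100 μM, with 1% final DMSO. HEp-2 cells had been plated at 1,500/well the day before.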

[3] = 120 h, read-out: 50% effective concentration (EC50), HEp-2 cells infected with RSV long strain, 5 days, CCK-8 readout
[4] = HEp-2, 120 h, read-out: 50% effective concentration (EC50), HEp-2 cells infected with RSV long strain, 5 days, CCK-8 readout

recombinant RSV complex, sequence (P28887 whole entry): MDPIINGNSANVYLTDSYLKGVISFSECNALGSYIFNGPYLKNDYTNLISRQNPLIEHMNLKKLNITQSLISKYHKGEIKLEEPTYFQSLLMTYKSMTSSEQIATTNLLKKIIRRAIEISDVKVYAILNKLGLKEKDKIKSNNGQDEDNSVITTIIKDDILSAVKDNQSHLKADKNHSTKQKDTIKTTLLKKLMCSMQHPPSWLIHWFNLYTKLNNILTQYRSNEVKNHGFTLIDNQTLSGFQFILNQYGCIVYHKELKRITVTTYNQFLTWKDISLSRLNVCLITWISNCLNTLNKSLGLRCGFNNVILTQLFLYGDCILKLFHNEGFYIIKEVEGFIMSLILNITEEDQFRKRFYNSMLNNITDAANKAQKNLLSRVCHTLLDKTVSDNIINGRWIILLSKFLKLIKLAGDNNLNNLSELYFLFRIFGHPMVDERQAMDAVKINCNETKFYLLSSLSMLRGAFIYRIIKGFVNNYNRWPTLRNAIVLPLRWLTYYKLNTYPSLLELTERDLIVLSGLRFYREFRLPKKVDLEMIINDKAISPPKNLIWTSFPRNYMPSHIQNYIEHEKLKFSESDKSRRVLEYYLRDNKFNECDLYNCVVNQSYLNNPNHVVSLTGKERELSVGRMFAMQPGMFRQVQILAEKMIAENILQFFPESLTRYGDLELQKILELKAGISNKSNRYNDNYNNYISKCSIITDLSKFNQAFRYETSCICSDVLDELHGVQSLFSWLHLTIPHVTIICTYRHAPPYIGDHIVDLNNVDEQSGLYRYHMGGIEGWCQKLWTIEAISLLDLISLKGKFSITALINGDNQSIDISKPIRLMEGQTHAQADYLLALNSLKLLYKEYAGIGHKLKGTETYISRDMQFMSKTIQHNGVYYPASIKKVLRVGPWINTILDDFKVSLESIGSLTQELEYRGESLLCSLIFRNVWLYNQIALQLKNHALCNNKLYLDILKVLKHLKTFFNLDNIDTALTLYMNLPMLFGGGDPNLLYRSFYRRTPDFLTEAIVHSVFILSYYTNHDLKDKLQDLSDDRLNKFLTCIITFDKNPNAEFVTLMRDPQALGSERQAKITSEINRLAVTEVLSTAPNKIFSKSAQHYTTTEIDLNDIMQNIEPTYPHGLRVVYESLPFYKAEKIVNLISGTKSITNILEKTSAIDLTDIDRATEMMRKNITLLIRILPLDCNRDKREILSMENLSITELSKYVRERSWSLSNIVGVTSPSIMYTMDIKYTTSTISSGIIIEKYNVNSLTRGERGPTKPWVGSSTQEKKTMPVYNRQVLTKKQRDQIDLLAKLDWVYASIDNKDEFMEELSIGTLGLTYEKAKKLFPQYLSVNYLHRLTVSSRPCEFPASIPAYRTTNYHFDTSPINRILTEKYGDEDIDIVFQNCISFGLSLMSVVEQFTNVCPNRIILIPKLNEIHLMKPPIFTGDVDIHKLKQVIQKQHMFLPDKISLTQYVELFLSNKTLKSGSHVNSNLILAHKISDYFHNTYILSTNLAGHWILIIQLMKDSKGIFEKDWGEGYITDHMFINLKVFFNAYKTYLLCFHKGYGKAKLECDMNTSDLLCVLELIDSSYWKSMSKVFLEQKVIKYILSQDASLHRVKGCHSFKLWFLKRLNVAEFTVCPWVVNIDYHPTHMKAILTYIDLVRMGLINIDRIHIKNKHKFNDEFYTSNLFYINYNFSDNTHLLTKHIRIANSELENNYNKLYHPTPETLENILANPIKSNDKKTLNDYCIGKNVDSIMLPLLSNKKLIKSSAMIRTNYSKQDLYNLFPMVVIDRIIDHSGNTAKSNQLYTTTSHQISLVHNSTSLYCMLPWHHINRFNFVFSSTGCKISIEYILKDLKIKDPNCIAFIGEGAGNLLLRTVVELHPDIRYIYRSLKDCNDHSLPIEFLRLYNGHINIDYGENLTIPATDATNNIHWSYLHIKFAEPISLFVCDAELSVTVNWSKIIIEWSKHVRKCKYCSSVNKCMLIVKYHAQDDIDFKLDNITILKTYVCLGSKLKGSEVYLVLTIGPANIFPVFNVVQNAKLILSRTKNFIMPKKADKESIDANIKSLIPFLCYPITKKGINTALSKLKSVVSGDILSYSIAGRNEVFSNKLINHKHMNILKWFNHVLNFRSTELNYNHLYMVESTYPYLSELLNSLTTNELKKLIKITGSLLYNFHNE
recombinant RSV complex, sequence (P03421 whole entry, further chain): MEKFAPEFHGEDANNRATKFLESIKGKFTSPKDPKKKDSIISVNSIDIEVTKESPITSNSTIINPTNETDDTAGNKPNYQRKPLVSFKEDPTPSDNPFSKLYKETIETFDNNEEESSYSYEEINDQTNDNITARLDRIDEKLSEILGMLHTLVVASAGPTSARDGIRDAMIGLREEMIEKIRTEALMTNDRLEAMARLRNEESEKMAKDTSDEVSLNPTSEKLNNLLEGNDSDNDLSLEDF

Compound | IC50 (recombinant RSV complex) [nM] | EC50 [1, 3] [nM] | EC50 (RSV replicon) [nM] | CC50 at 5 days [2] [nM] | EC50 [1, 4] [nM]
COc1cc(C(=O)NCC(O)(c2ccc(OC)c(-c3ccc(F)c(Cl)c3)n2)C(F)(F)F)ccc1OC1CC1 (stereo not shown) [Compound 370] | < 1000 | < 1000 | < 1000 | > 100000 | –
COc1cc(C(=O)NCC(C)(O)c2ccc(OC)c(-c3ccc(F)c(Cl)c3)n2)ccc1OC1CC1 (stereo not shown) [Compound 369] | < 1000 | – | < 1000 | 10000 to 100000 | < 1000
COc1cc(C(=O)NCC(O)(c2cc(C(C)(C)NC(C)=O)cc(-c3ccc(F)cc3)n2)C(F)(F)F)ccc1OCCO (stereo not shown) [Compound 611] | < 1000 | – | < 1000 | > 100000 | < 1000
COc1cc(C(=O)NCC(O)(c2cc([C@@]3(C)CCN3)cc(-c3ccc(F)c(Cl)c3)n2)C(F)(F)F)ccc1OC1CC1 (stereo partly shown) [Compound 563] | < 1000 | – | < 1000 | 10000 to 100000 | < 1000
COc1cc(C(=O)NCC(O)(c2cc(C(C)(C)N)cc(-c3ccc(F)c(Cl)c3)n2)C(F)(F)F)cc2cccnc12 (stereo not shown) [Compound 321] | < 1000 | – | < 1000 | 10000 to 100000 | < 1000
COc1cc(C(=O)NCC(O)(c2cc(CNC(C)=O)cc(-c3ccc(F)c(Cl)c3)n2)C(F)(F)F)ccc1OC1CC1 (stereo not shown) [Compound 328] | < 1000 | – | < 1000 | 10000 to 100000 | < 1000
COc1cc(C(=O)NCC(O)(c2ccc(OC)c(-c3ccc(F)c(Cl)c3)n2)C2CC2)ccc1Cn1cncn1 (stereo not shown) [Compound 434] | < 1000 | – | < 1000 | 10000 to 100000 | < 1000
COc1cc(C(=O)NCC(O)(c2cc(C(C)(C)N(C)C)cc(-c3ccc(F)c(Cl)c3)n2)C(F)(F)F)ccc1OC1CC1 (stereo not shown) [Compound 400] | < 1000 | < 1000 | < 1000 | 10000 to 100000 | –
COc1cc(C(=O)NCC(O)(c2ccc(OC)c(-c3ccc(F)c(Cl)c3)n2)C(F)(F)F)ccc1OC1CC(F)C1 (stereo not shown) [Compound 470] | < 1000 | < 1000 | < 1000 | > 100000 | –
COc1cc(C(=O)NCC(O)(c2cc3c(c(-c4ccc(F)cc4)n2)OCC3(C)CN)C(F)(F)F)ccc1OC1CC1 (stereo not shown) [Compound 538] | < 1000 | – | < 1000 | 10000 to 100000 | < 1000
COc1cc(C(=O)NCC(O)(c2ccc(OC)c(-c3ccc(F)c(Cl)c3)n2)C(F)F)ccc1OC1CC1 (stereo not shown) [Compound 445] | < 1000 | – | < 1000 | 10000 to 100000 | < 1000
COc1cc(C(=O)NCC(O)(c2ccc(OC)c(-c3ccc(F)c(Cl)c3)n2)C2CC2)ccc1OCCO (stereo not shown) [Compound 241] | < 1000 | – | < 1000 | 10000 to 100000 | < 1000
COc1cc(C(=O)NCC(O)(CO)c2ccc(OC)c(-c3ccc(F)c(Cl)c3)n2)ccc1OC1CC1 (stereo not shown) [Compound 384] | < 1000 | – | < 1000 | 10000 to 100000 | < 1000
COc1cc(C(=O)NCC(C)(O)c2cc(C(C)(C)N)cc(-c3ccc(F)cc3)n2)ccc1OC1CC1 (stereo not shown) [Compound 574] | < 1000 | – | < 1000 | 10000 to 100000 | < 1000
COC(=O)CNC(C)(C)c1cc(-c2ccc(F)c(Cl)c2)nc(C(O)(CNC(=O)c2ccc(OC3CC3)c(OC)c2)C(F)(F)F)c1 (stereo not shown) [Compound 500] | < 1000 | < 1000 | < 1000 | 10000 to 100000 | –
COc1cc(C(=O)NCC(O)(c2ccc(OC)c(-c3ccc(F)c(Cl)c3)n2)C(F)(F)F)ccc1OC1CC(F)(F)C1 (stereo not shown) [Compound 244] | < 1000 | – | < 1000 | > 100000 | < 1000
COc1cc(C(=O)NCC(C)(O)c2ccc(OC)c(-c3ccc(F)c(Br)c3)n2)ccc1OCC(N)=O (stereo not shown) [Compound 403] | < 1000 | – | < 1000 | > 100000 | < 1000
COc1cc(C(=O)NCC(O)(c2ccc(OC)c(-c3ccc(F)c(Cl)c3)n2)C2CC2)ccc1OCc1ncn[nH]1 (stereo not shown) [Compound 360] | < 1000 | < 1000 | < 1000 | 10000 to 100000 | –
COc1cc(C(=O)NCC(O)(c2ccc(OC)c(-c3ccc(F)c(Cl)c3)n2)C(F)(F)F)ccc1OC1CCC1 (stereo not shown) [Compound 245] | < 1000 | – | < 1000 | > 100000 | < 1000
